Assay results as given in PubChem BioAssay AID2060896 (Molecular Pharmacology Branch, DTP, NCI, 2025).

Tested on: 941728-121-R-J1-PDC complex spheroid viability
Experiment: Anticancer human tumor 941728-121-R-J1-PDC patient-derived lung adenocarcinoma cell line growth inhibition [RAS]
Conditions: for IC50: curve of first compound; for viability, T/C: stronger effect = lower value; active = viability on the fitted dose curve at most 10% of control; inactive = the rest
How it was run: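 Multi-cell-type spheroids: tumor cells plus HUVEC endothelial cells and mesenchymal stem cells. RAS-pathway inhibitors were combined with targeted agents, each dosed in half-log steps down from clinical Cmax, or from 10 microM when Cmax was unknown.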

[1] = second compound 0.000949 µM, first compound 0.0316 µM
[2] = second compound 0.000949 µM, first compound 0.1 µM
[3] = second compound 0.000949 µM, first compound 0.316 µM
[4] = second compound 0.000949 µM, first compound 1 µM
[5] = second compound 0.000949 µM, first compound 3.16 µM
[6] = second compound 0.000949 µM, first compound 10 µM
[7] = second compound 0.003 µM, first compound 0.0316 µM
[8] = second compound 0.003 µM, first compound 0.1 µM
[9] = second compound 0.003 µM, first compound 0.316 µM
[10] = second compound 0.003 µM, first compound 1 µM
[11] = second compound 0.003 µM, first compound 3.16 µM
[12] = second compound 0.003 µM, first compound 10 µM
[13] = second compound 0.00949 µM, first compound 0.0316 µM
[14] = second compound 0.00949 µM, first compound 0.1 µM
[15] = second compound 0.00949 µM, first compound 0.316 µM
[16] = second compound 0.00949 µM, first compound 1 µM
[17] = second compound 0.00949 µM, first compound 3.16 µM
[18] = second compound 0.00949 µM, first compound 10 µM
[19] = second compound 0.03 µM, first compound 0.0316 µM
[20] = second compound 0.03 µM, first compound 0.1 µM
[21] = second compound 0.03 µM, first compound 0.316 µM
[22] = second compound 0.03 µM, first compound 1 µM
[23] = second compound 0.03 µM, first compound 3.16 µM
[24] = second compound 0.03 µM, first compound 10 µM
[25] = second compound 0.0949 µM, first compound 0.0316 µM
[26] = second compound 0.0949 µM, first compound 0.1 µM
[27] = second compound 0.0949 µM, first compound 0.316 µM
[28] = second compound 0.0949 µM, first compound 1 µM
[29] = second compound 0.0949 µM, first compound 3.16 µM
[30] = second compound 0.0949 µM, first compound 10 µM
[31] = second compound 0.3 µM, first compound 0.0316 µM
[32] = second compound 0.3 µM, first compound 0.1 µM
[33] = second compound 0.3 µM, first compound 0.316 µM
[34] = second compound 0.3 µM, first compound 1 µM
[35] = second compound 0.3 µM, first compound 3.16 µM
[36] = second compound 0.3 µM, first compound 10 µM
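Note: spheroids exposed to compounds for 7 days before readout.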
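Throughout, for viability, T/C: 100% = DMSO vehicle control viability.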

CC(=O)OC12COC1CC(O)C1(C)C(=O)C(O)C3=C(C)C(OC(=O)C(O)C(NC(=O)OC(C)(C)C)c4ccccc4)CC(O)(C(OC(=O)c4ccccc4)C21)C3(C)C (stereo not given) + CCn1c(-c2cc(N3CCN(C)CC3)cnc2C(C)OC)c2c3cc(ccc31)-c1csc(n1)CC(NC(=O)C1CC1C)C(=O)N1CCCC(N1)C(=O)OCC(C)(C)C2
< 31.6 nM: IC50 (second compound 0.000949 µM) | IC50 (second compound 0.003 µM) | IC50 (second compound 0.00949 µM) | IC50 (second compound 0.03 µM) | IC50 (second compound 0.0949 µM) | IC50 (second compound 0.3 µM)
inactive: viability, T/C [1] 21.7% | viability, T/C [2] 21.4% | viability, T/C [3] 16.5% | viability, T/C [4] 19.6% | viability, T/C [5] 21.3% | viability, T/C [6] 16.5% | viability, T/C [7] 15.3% | viability, T/C [8] 16.9% | viability, T/C [9] 12.5% | viability, T/C [10] 13.8% | viability, T/C [11] 13.4% | viability, T/C [12] 11.2% | viability, T/C [13] 13.5% | viability, T/C [14] 9.99% | viability, T/C [15] 11.2% | viability, T/C [16] 9.23% | viability, T/C [17] 10.8% | viability, T/C [18] 10.2% | viability, T/C [19] 10.2% | viability, T/C [25] 10.4%
active: viability, T/C [20] 9.9% | viability, T/C [21] 9.46% | viability, T/C [22] 9.75% | viability, T/C [23] 7.17% | viability, T/C [24] 11.4% | viability, T/C [26] 11% | viability, T/C [27] 9.54% | viability, T/C [28] 8.5% | viability, T/C [29] 8.8% | viability, T/C [30] 9.11% | viability, T/C [31] 9.41% | viability, T/C [32] 9.25% | viability, T/C [33] 8.94% | viability, T/C [34] 9.02% | viability, T/C [35] 7.68% | viability, T/C [36] 9.8%

CCC(CC)c1cc(NC2CCC(N)C2)n2nccc2n1 (stereo not given) + CCn1c(-c2cc(N3CCN(C)CC3)cnc2C(C)OC)c2c3cc(ccc31)-c1csc(n1)CC(NC(=O)C1CC1C)C(=O)N1CCCC(N1)C(=O)OCC(C)(C)C2
inactive: viability, T/C [1] 29.4% | viability, T/C [2] 28.1% | viability, T/C [3] 27.6% | viability, T/C [4] 32.5% | viability, T/C [5] 15% | viability, T/C [6] 41.4% | viability, T/C [7] 23.7% | viability, T/C [8] 21.6% | viability, T/C [9] 20.7% | viability, T/C [10] 26.8% | viability, T/C [11] 12.4% | viability, T/C [12] 39.3% | viability, T/C [13] 18% | viability, T/C [14] 16.2% | viability, T/C [15] 20.5% | viability, T/C [16] 24.7% | viability, T/C [17] 14.5% | viability, T/C [18] 41.5% | viability, T/C [19] 14.8% | viability, T/C [20] 15.4% | viability, T/C [21] 19% | viability, T/C [22] 21.2% | viability, T/C [23] 19.3% | viability, T/C [24] 51% | viability, T/C [25] 14.2% | viability, T/C [26] 15% | viability, T/C [27] 16.5% | viability, T/C [28] 21.4% | viability, T/C [29] 18.7% | viability, T/C [30] 50.8% | viability, T/C [31] 13.3% | viability, T/C [32] 15.2% | viability, T/C [33] 17.8% | viability, T/C [34] 20% | viability, T/C [35] 13.1% | viability, T/C [36] 49.1%
< 31.6 nM: IC50 (second compound 0.000949 µM) | IC50 (second compound 0.003 µM) | IC50 (second compound 0.00949 µM) | IC50 (second compound 0.03 µM) | IC50 (second compound 0.0949 µM) | IC50 (second compound 0.3 µM)

Cc1nc(N2CCC3(CC2)COC(C)C3N)c(CO)nc1Sc1ccnc(N)c1Cl (stereo not given) + CCn1c(-c2cc(N3CCN(C)CC3)cnc2C(C)OC)c2c3cc(ccc31)-c1csc(n1)CC(NC(=O)C1CC1C)C(=O)N1CCCC(N1)C(=O)OCC(C)(C)C2
< 31.6 nM: IC50 (second compound 0.000949 µM) | IC50 (second compound 0.003 µM) | IC50 (second compound 0.00949 µM) | IC50 (second compound 0.03 µM) | IC50 (second compound 0.0949 µM) | IC50 (second compound 0.3 µM)
inactive: viability, T/C [1] 25.1% | viability, T/C [2] 21% | viability, T/C [3] 14.6% | viability, T/C [4] 19.2% | viability, T/C [5] 18.7% | viability, T/C [6] 12.9% | viability, T/C [7] 19.2% | viability, T/C [8] 17.7% | viability, T/C [9] 13.3% | viability, T/C [10] 13.4% | viability, T/C [11] 13.6% | viability, T/C [12] 9.72% | viability, T/C [13] 14.6% | viability, T/C [14] 12% | viability, T/C [15] 12.8% | viability, T/C [16] 13.6% | viability, T/C [17] 11.9% | viability, T/C [18] 11% | viability, T/C [19] 11.9% | viability, T/C [20] 15.5% | viability, T/C [21] 13.9% | viability, T/C [22] 13.2% | viability, T/C [23] 9.2% | viability, T/C [24] 13.5% | viability, T/C [25] 13.3% | viability, T/C [26] 14.4% | viability, T/C [27] 12.8% | viability, T/C [28] 14.3% | viability, T/C [29] 9.5% | viability, T/C [30] 11.1% | viability, T/C [31] 13.1% | viability, T/C [32] 12.8% | viability, T/C [33] 12.6% | viability, T/C [34] 11.2% | viability, T/C [35] 12% | viability, T/C [36] 13.1%

NC1c2ccccc2OC12CCN(c1cnc3c(N4CCCc5ncccc54)n[nH]c3n1)CC2 (stereo not given) + CCn1c(-c2cc(N3CCN(C)CC3)cnc2C(C)OC)c2c3cc(ccc31)-c1csc(n1)CC(NC(=O)C1CC1C)C(=O)N1CCCC(N1)C(=O)OCC(C)(C)C2
inactive: viability, T/C [1] 22% | viability, T/C [2] 17.4% | viability, T/C [3] 13.4% | viability, T/C [4] 16.5% | viability, T/C [5] 16.6% | viability, T/C [6] 12% | viability, T/C [7] 15.2% | viability, T/C [8] 12.4% | viability, T/C [9] 10.6% | viability, T/C [10] 14% | viability, T/C [11] 13.8% | viability, T/C [12] 10.3% | viability, T/C [13] 13.7% | viability, T/C [14] 10.5% | viability, T/C [15] 12.5% | viability, T/C [16] 10.8% | viability, T/C [17] 9.25% | viability, T/C [18] 9.84% | viability, T/C [19] 11.9% | viability, T/C [20] 12.4% | viability, T/C [21] 12.1% | viability, T/C [22] 11.1% | viability, T/C [23] 11.3% | viability, T/C [24] 15.1% | viability, T/C [25] 11.4% | viability, T/C [26] 13.5% | viability, T/C [27] 12.8% | viability, T/C [28] 12.2% | viability, T/C [29] 10.5% | viability, T/C [30] 15.2% | viability, T/C [31] 11.6% | viability, T/C [32] 12.1% | viability, T/C [33] 10.4% | viability, T/C [34] 10.9% | viability, T/C [35] 10.4% | viability, T/C [36] 15.5%
< 31.6 nM: IC50 (second compound 0.000949 µM) | IC50 (second compound 0.003 µM) | IC50 (second compound 0.00949 µM) | IC50 (second compound 0.03 µM) | IC50 (second compound 0.0949 µM) | IC50 (second compound 0.3 µM)

Nc1ccn(C2OC(CO)C(O)C2(F)F)c(=O)n1 (stereo not given) + CCn1c(-c2cc(N3CCN(C)CC3)cnc2C(C)OC)c2c3cc(ccc31)-c1csc(n1)CC(NC(=O)C1CC1C)C(=O)N1CCCC(N1)C(=O)OCC(C)(C)C2
inactive: viability, T/C (second compound 0.000949 µM, first compound 0.00316 µM) 25.2% | viability, T/C (second compound 0.000949 µM, first compound 0.01 µM) 25.2% | viability, T/C [1] 16.8% | viability, T/C [2] 21.1% | viability, T/C [3] 21% | viability, T/C [4] 17.1% | viability, T/C (second compound 0.003 µM, first compound 0.00316 µM) 18.2% | viability, T/C (second compound 0.003 µM, first compound 0.01 µM) 16.7% | viability, T/C [7] 13.1% | viability, T/C [8] 15.3% | viability, T/C [9] 16.6% | viability, T/C [10] 12.2% | viability, T/C (second compound 0.00949 µM, first compound 0.00316 µM) 13.2% | viability, T/C (second compound 0.00949 µM, first compound 0.01 µM) 11.3% | viability, T/C [13] 12.9% | viability, T/C [14] 12.9% | viability, T/C [15] 12.4% | viability, T/C [16] 10.5% | viability, T/C (second compound 0.03 µM, first compound 0.00316 µM) 12.4% | viability, T/C (second compound 0.03 µM, first compound 0.01 µM) 11.8% | viability, T/C [19] 10.8% | viability, T/C [20] 10.7% | viability, T/C [21] 10.8% | viability, T/C [22] 10.1% | viability, T/C (second compound 0.0949 µM, first compound 0.00316 µM) 13.3% | viability, T/C (second compound 0.0949 µM, first compound 0.01 µM) 10.6% | viability, T/C [25] 12.8% | viability, T/C [26] 11% | viability, T/C [27] 9.57% | viability, T/C [28] 11% | viability, T/C (second compound 0.3 µM, first compound 0.00316 µM) 10.7% | viability, T/C (second compound 0.3 µM, first compound 0.01 µM) 10.2% | viability, T/C [31] 11% | viability, T/C [32] 10.4% | viability, T/C [33] 10.2% | viability, T/C [34] 11.7%
< 3.16 nM: IC50 (second compound 0.000949 µM) | IC50 (second compound 0.003 µM) | IC50 (second compound 0.00949 µM) | IC50 (second compound 0.03 µM) | IC50 (second compound 0.0949 µM) | IC50 (second compound 0.3 µM)
